# Results from US7094423B1, “Methods for preparation of lipid-encapsulated therapeutic agents” (INEX Pharmaceuticals Corp., priority 1999, dated 2006).
# Several values for one entry are separate records, joined by “and”; a condition that tells them apart may be missing. Identical values can stand only once.
# Experiments:
# Assay type in all cases: physicochemical
# [1] = Leakage experiments: ethanol-induced permeabilization of LUVs; details: DSPC/Chol/PEG-CerC14/DODAP liposomes, 40° C.
# Protocol: Leakage experiments. Ethanol-induced permeabilization of LUVs was measured at different temperatures and as a function of the size (MW) of the entrapped solute. […] Leakage of calcein entrapped at self-quenching concentrations was followed by monitoring the dequenching of the calcein fluorescence. LUVs were prepared by hydration of a lipid film with an aqueous solution containing 75 mM calcein and 5 mM HEPES adjusted to pH 7.5 by addition of sodium hydroxide, followed by 5 freeze/thaw cycles and extrusion through 2 stacked 100 nm filters (10 passes). In the case of […] extrusion was performed at 60° C. Unentrapped calcein was exchanged against an isoosmotic HBS buffer by anion exchange chromatography on a DEAE Sepharose CL6B column. The liposome stock solution was diluted to a lipid concentration of 3 μM in HBS containing varying amounts of ethanol pre-equilibrated at 25, 40 or 60° C. The fluorescence at 520 nm was measured (excitation wavelength […], long-pass filter at 430 nm) with a Perkin Elmer LS50 Fluorimeter (Perkin Elmer) after 5 min of incubation at the corresponding temperature. […] The FITC/LRh-PE ratio was measured before and after addition of ethanol. FITC and LRh-PE fluorescence were measured at 515 nm and 590 nm with the excitation wavelength set to 485 nm and 560 nm, respectively.
# [2] = Final drug/lipid ratio and encapsulation efficiency (E.E.)
# Protocol: The procedure of Example 2 was repeated with changes to various parameters to determine which might be critical to the preparation of fully lipid-encapsulated therapeutic agent particles in accordance with the invention. In these experiments, the total oligonucleotide recovery (yield), the total lipid recovery (yield) and the encapsulation efficiency were considered as indications of the quality of the product and the process. Total oligonucleotide recovery was calculated using the formula:
# [formula] Encapsulation Efficiency (E.E.) was calculated using the formula:
# (§1) [formula] The percentage of oligo that is encapsulated (i.e., incorporated in bilayers or entrapped in the interior of the lipid particle) was determined with the OliGreen assay described above.
# [3] = Trapping efficiency of oligonucleotide in liposomes after anion exchange chromatography
# Protocol: Entrapment procedure. […] At pH 7.5 DODAP becomes charge-neutral and oligonucleotides bound to the external membrane surface are released from their association with the cationic lipid. Unencapsulated oligonucleotides were subsequently removed by anion exchange chromatography on DEAE-sepharose CL-6B columns equilibrated in HBS pH 7.5. When octylglucoside was used in place of ethanol the detergent was added to liposomes (1:1 v/v) to final concentrations ranging from 30–40 mM. All the subsequent steps were performed as described above except for the initial dialysis step against pH 4 citrate buffer, which was extended to 5 hrs. In the following examples, if not otherwise mentioned, DSPC/Chol/PEG-CerC14/DODAP liposomes (20:45:10:25 mol %), c-myc (Seq. ID No. 1), 40% (v/v) ethanol, 300 mM citrate buffer and incubation at 40° C. were used.
# Determination of trapping efficiencies: Trapping efficiencies were determined after removal of external oligonucleotides by anion exchange chromatography. Oligonucleotide concentrations were determined by UV-spectroscopy on a Shimadzu UV160U spectrophotometer. The absorbance at 260 nm was measured after solubilization of the samples in chloroform/methanol at a volume ratio of 1:2.1:1 chloroform/methanol/aqueous phase (sample/HBS). If the solution was not completely clear after mixing an additional 50–100 μl of methanol was added. Alternatively, absorbance was read after solubilization of the samples in 100 mM octylglucoside. The antisense concentrations were calculated according to: c [μg/μl]=A260*1 OD260 unit [μg/μl]*dilution factor [μg/μl], where the dilution factor is given by the total assay volume […] divided by the sample volume [μl]. OD260 units were calculated from pairwise extinction coefficients for individual deoxy-nucleotides, which take into account nearest neighbor interactions. 1OD corresponds to 30.97 μg/ml c-myc (Seq. ID. No 1), 33.37 μg/ml h-ICAM-1 (Seq. ID No. 2) and 34 μg/ml EGFR (Seq. ID No. 3). Lipid concentrations were determined by the inorganic phosphorus assay after separation of the lipids from the oligonucleotides by a Bligh and Dyer extraction (Bligh and Dyer, 1959). Briefly, to 250 μl of aqueous phase (sample/HBS) 525 μl methanol and 250 μl chloroform were added to form a clear single phase (aqueous phase/methanol/chlorofrom 1:2.1:1 vol). If the solution was not clear a small amount of methanol was added. Subsequently, 250 μl HBS and an equal volume of chloroform were added. The samples were mixed and centrifuged for 5–10 min at 3000 rpm. […] The chloroform phase was assayed for phospholipid content according to the method of Fiske and Subbarrow (1925). If not otherwise mentioned, trapping efficiencies were expressed as oligonucleotide-to-lipid weight ratios [w/w].
# [4] = OliGreen assay: percentage of oligo that is encapsulated; details: for Encap Oligo %: Ex. 2 procedure
# Protocol: The Oligreen Assay was used to quantify the amount of oligonucleotide loaded into the vesicles. A fluorescent dye binding assay for quantifying single stranded oligonucleotide in aqueous solutions was established using a Biolumin™ 960 fluorescent plate reader (Molecular Dynamics, Sunnyvale, Calif., USA). Briefly, aliquots of encapsulated oligonucleotide were diluted in HEPES buffered saline (HBS; 20 mM HEPES, 145 mM NaCl, pH 7.5). A 10 μL aliquot of the diluted sample was added to 100 μL of a 1:200 dilution of Oligreen™ reagent, both with and without 0.1% of Triton X-100 detergent. An oligo standard curve was prepared with and without 0.1% Triton X-100 for quantification of encapsulated oligo. Fluorescence of the Oligreen™-antisense complex was measured using excitation and emission wavelengths of 485 nm and 520 nm, respectively. Surface associated antisense was determined by comparing the fluorescence measurements in the absence and presence of detergent.
# as §1
# [5] = Dynamic light scattering: vesicle size; details: for Size [nm]: DSPC/Chol/DODAP/PEG-CerC14 20/45/25/10 mol %, initial oligonucleotide-to-lipid 0.23 mg/mg, number-averaged
# Protocol: Dynamic light scattering. Sizes were determined by dynamic light scattering using a NICOMP 370 particle sizer (Nicomp Particle Sizing Inc., Santa Barbara, Calif.). Throughout the application, number-averaged sizes are presented, which were obtained by a cumulant fit from the experimental correlation functions. The polydispersity is expressed as the half-width at half-height of a monomodal Gaussian size distribution. The viscosity of the ethanol/citrate buffer was determined using an Ubelohde-type viscometer (Cannon 50). […] The zeta potential was determined by electrophoretic light scattering using a Coulter light scattering instrument (DELSA, Coulter Electronics Inc., FL).
# [6] = Trapping efficiency of oligonucleotide in liposomes after anion exchange chromatography; details: DSPC/Chol/DODAP/PEG-CerC14 liposomes; initial ATP-to-lipid ratio 0.2 mg/mg; 50 mM citrate buffer
# [7] = Ex. 2 procedure, initial drug/lipid ratio 0.1
# [8] = Ex. 2 procedure, initial drug/lipid ratio 0.2
# [9] = initial EtOH 33%, initial drug/lipid 0.2
# [10] = initial EtOH 40%, initial drug/lipid 0.2
# [11] = initial EtOH 43%, initial drug/lipid 0.2
# [12] = 2.5 mol % PEG-CerC14, 40% ethanol, initial oligonucleotide-to-lipid 0.037 mol/mol, listed as c-myc
# [13] = 5 mol % PEG-CerC14, 40% ethanol, initial oligonucleotide-to-lipid 0.037 mol/mol
# [14] = 10 mol % PEG-CerC14, 40% ethanol, initial oligonucleotide-to-lipid 0.037 mol/mol, listed as c-myc
# [15] = DSPC/Chol/DODAP liposomes (no modified lipid), 0% EtOH [v/v], molar ODN/lipid 0.035, pH 4
# [16] = DSPC/Chol/DODAP liposomes (no modified lipid), 20% EtOH [v/v], molar ODN/lipid 0.035, pH 4
# [17] = DSPC/Chol/DODAP liposomes (no modified lipid), 30% EtOH [v/v], molar ODN/lipid 0.035, pH 4
# [18] = citrate buffer 50 mM, initial drug/lipid 0.1
# [19] = citrate buffer 100 mM, initial drug/lipid 0.1
# [20] = citrate buffer 200 mM, initial drug/lipid 0.1
# [21] = citrate buffer 300 mM, initial drug/lipid 0.1
# [22] = incubation temp RT(20–22) °C, 1 hour
# [23] = initial EtOH 36%, initial drug/lipid 0.1
# [24] = initial EtOH 43%, initial drug/lipid 0.1
# [25] = initial EtOH 45%, initial drug/lipid 0.1
# [26] = oligo stock 10 mg/ml, initial drug/lipid 0.1
# [27] = oligo stock 20 mg/ml, initial drug/lipid 0.1
# [28] = oligo stock 30 mg/ml, initial drug/lipid 0.1
# [29] = oligo stock 40–50 mg/ml, initial drug/lipid 0.1
compound,measurement,setting,value
O=C(O)CN(CC(=O)O)Cc1cc2c(cc1O)Oc1cc(O)c(CN(CC(=O)O)CC(=O)O)cc1C21OC(=O)c2ccccc21 [calcein],ethanol concentration at which leakage reaches a maximum,[1],around 40 % ethanol
same,ethanol concentration at which leakage starts,[1],≤ 30 % ethanol
"5′-TAACGTTGAGGGGCAT-3′ (listed as DNA, chemistry not given here) [INX-6295]",E.E. %,[2]; [7],100%
same,Final Drug/Lipid Ratio,[2]; [7],0.1
same,Final Drug/Lipid Ratio,[2]; [8],0.17–0.2
same,E.E. %,[2]; [9],60%
same,Final Drug/Lipid,[2]; [9],0.12
same,E.E. %,[2]; [10],75%
same,Final Drug/Lipid,[2]; [10],0.15
same,E.E. %,[2]; [11],95%
same,Final Drug/Lipid,[2]; [11],0.19
same,% encapsulation,[3]; [12],45% and 45.7%
same,% encapsulation,[3]; [13],50.9%
same,% encapsulation,"[3]; 10 mol % PEG-CerC14, 25% ethanol, initial oligonucleotide-to-lipid 0.037 mol/mol, listed as c-myc",5%
same,% encapsulation,[3]; [14],60% and 56.5%
same,final antisense-to-lipid ratio,"[3]; 10 mol % PEG-CerC14 liposomes, initial antisense-to-lipid weight ratio 0.29",0.16
same,% encapsulation,[3]; [15],4.4%
same,% encapsulation,[3]; [16],20.5%
same,% encapsulation,[3]; [17],32.5%
same,% encapsulation,"[3]; OGP 30 mM in place of ethanol, DSPC/Chol/DODAP/PEG-CerC14 20/45/25/10 mol %, initial oligonucleotide-to-lipid 0.23 mg/mg",51%
same,% encapsulation,"[3]; OGP 35 mM in place of ethanol, DSPC/Chol/DODAP/PEG-CerC14 20/45/25/10 mol %, initial oligonucleotide-to-lipid 0.23 mg/mg",57%
same,% encapsulation,"[3]; OGP 40 mM in place of ethanol, DSPC/Chol/DODAP/PEG-CerC14 20/45/25/10 mol %, initial oligonucleotide-to-lipid 0.23 mg/mg",55%
same,oligonucleotide molecules per 100 nm liposome,[3]; at maximum entrapment,approximately 2250
same,Encap Oligo %,[4]; initial drug/lipid ratio 0.1,≧90%
same,Encap Oligo %,[4]; initial drug/lipid ratio 0.2,≧80%
same,Encapsulated Oligo %,[4]; [18],94%
same,Encapsulated Oligo %,[4]; [19],90%
same,Encapsulated Oligo %,[4]; [20],91%
same,Encapsulated Oligo %,[4]; [21],92%
same,Encaps Oligo %,"[4]; incubation temp 40 °C, 1 hour",91%
same,Encaps Oligo %,"[4]; incubation temp 60 °C, 1 hour",83%
same,Encaps Oligo %,[4]; [22],90%
same,Encapsulated Oligo %,[4]; incubation time 0.5 hr at 40° C.,92%
same,Encapsulated Oligo %,[4]; incubation time 1 hr at 40° C.,94%
same,Encapsulated Oligo %,[4]; incubation time 2 hr at 40° C.,95%
same,Encaps Oligo %,[4]; [9],88%
same,Encaps Oligo %,[4]; [23],85–89%
same,Encaps Oligo %,[4]; [10],82%
same,Encaps Oligo %,[4]; [24],84–89%
same,Encaps Oligo %,[4]; [11],62%
same,Encaps Oligo %,[4]; [25],90–92%
same,Encaps Oligo %,[4]; [26],90%
same,Encaps Oligo %,[4]; [27],88%
same,Encaps Oligo %,[4]; [28],90%
same,Encaps Oligo %,[4]; [29],88–94%
same,Average size [nm],"[5]; 2.5 mol % PEG-CerC14, 25% ethanol, initial oligonucleotide-to-lipid 0.037 mol/mol",125 ± 35 (108 ± 26) nm
same,Average size [nm],[5]; [12],131±40 nm and 131 ± 40 (108 ± 26) nm
same,Average size [nm],[5]; [13],126 ± 36 (107 ± 22) nm
same,Average size [nm],"[5]; 10 mol % PEG-CerC14, 25% ethanol, initial oligonucleotide-to-lipid 0.037 mol/mol",92 ± 18 (93 ± 18) nm
same,Average size [nm],[5]; [14],100±26 nm and 100 ± 26 (93 ± 18) nm
same,Average size [nm],[5]; [15],148 ± 56 nm
same,Average size [nm],[5]; [16],226 ± 104 nm
same,Average size [nm],[5]; [17],470 ± 244 nm
same,Vesicle Size (nm),[5]; [7],106 nm
same,Vesicle Size (nm),[5]; [8],119 nm
same,Size [nm],[5]; OGP 30 mM in place of ethanol,65 ± 12 nm
same,Size [nm],[5]; OGP 35 mM in place of ethanol,100 ± 22 nm
same,Size [nm],[5]; OGP 40 mM in place of ethanol,145 ± 38 nm
same,Vesicle Size (nm),[5]; [18],80 nm
same,Vesicle Size (nm),[5]; [19],90 nm
same,Vesicle Size (nm),[5]; [20],93 nm
same,Vesicle Size (nm),[5]; [21],106 nm
same,Vesicle Size (nm),"[5]; incubation temp 40 °C, 1 hour",109 nm
same,Vesicle Size (nm),"[5]; incubation temp 60 °C, 1 hour",140 nm
same,Vesicle Size (nm),[5]; [22],114 nm
same,Vesicle Size (nm),[5]; [9],115 nm
same,Vesicle Size (nm),[5]; [23],110 nm
same,Vesicle Size (nm),[5]; [10],114 nm
same,Vesicle Size (nm),[5]; [24],116 nm
same,Vesicle Size (nm),[5]; [11],105 nm
same,Vesicle Size (nm),[5]; [25],108 nm
same,size and polydispersity of liposomes,[5]; initial ODN-to-lipid weight ratio of 0.2,110±30 nm
same,Vesicle Size (nm),[5]; [26],106 nm
same,Vesicle Size (nm),[5]; [27],112 nm
same,Vesicle Size (nm),[5]; [28],110 nm
same,Vesicle Size (nm),[5]; [29],106 nm
Nc1ncnc2c1ncn2[C@@H]1O[C@H](COP(=O)(O)OP(=O)(O)OP(=O)(O)O)[C@@H](O)[C@H]1O [ATP],fraction entrapped,[6],less than 10%
